Data: US6737383B1, “Herbicidal oxadiazolidines” (priority 1999, dated 2004)

How the values were obtained:
crabgrass = experiment: Test B pre/postemergence crabgrass; type: in vivo, Digitaria sanguinalis
Summary of the method: (§1)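 Response is a visual 0-to-10 score relative to untreated plants, where 0 means no effect and 10 means complete control, taken twelve to sixteen days after application. Treatments went onto soil at planting and onto foliage of 1- to 4-leaf plants, using a surfactant-containing non-phytotoxic solvent.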

cocklebur = experiment: Test B pre/postemergence cocklebur; type: in vivo, Xanthium strumarium
Summary of the method: as §1

smallflower flatsedge = experiment: Test B flood test smallflower flatsedge; type: in vivo, Cyperus difformis
Summary of the method: (§2)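 Flood test on plants grown to the 2-leaf stage; treated plants kept in greenhouse twelve to sixteen days, then visually rated against controls on a 0 (no effect) to 10 (complete control) scale.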

purple nutsedge = experiment: Test B pre/postemergence purple nutsedge; type: in vivo, Cyperus rotundus
Summary of the method: as §1

bedstraw = experiment: Test B pre/postemergence bedstraw; type: in vivo, Galium aparine; details: Postemergence, Rate 62 g/ha; scale 0 to 10, 0 is no effect, 10 is complete control
Summary of the method: as §1

velvetleaf = experiment: Test B pre/postemergence velvetleaf; type: in vivo, Abutilon theophrasti
Summary of the method: as §1

rice = experiment: Test B flood test rice; type: in vivo, Oryza sativa
Summary of the method: as §2

soybean = experiment: Test B pre/postemergence soybean; type: in vivo, Glycine max
Summary of the method: as §1

surinam grass = experiment: Test B pre/postemergence surinam grass; type: in vivo, Brachiaria decumbens
Summary of the method: as §1

corn = experiment: Test B pre/postemergence corn; type: in vivo, Zea mays
Summary of the method: as §1

bamyardgrass = experiment: Test B flood test barnyardgrass; type: in vivo, Echinochloa crus-galli
Summary of the method: as §2

sugar beet = experiment: Test B pre/postemergence sugar beet; type: in vivo, Beta vulgaris
Summary of the method: as §1

wild oat = experiment: Test B pre/postemergence wild oat; type: in vivo, Avena fatua
Summary of the method: as §1

pigweed = experiment: Test B pre/postemergence pigweed; type: in vivo, Amaranthus retroflexus
Summary of the method: as §1

blackgrass = experiment: Test B pre/postemergence blackgrass; type: in vivo, Alopecurus myosuroides
Summary of the method: as §1

giant foxtail = experiment: Test B pre/postemergence giant foxtail; type: in vivo, Setaria faberii
Summary of the method: as §1

[1] = Postemergence, Rate 62 g/ha, scale 0 to 10, 0 is no effect, 10 is complete control
[2] = Postemergence, Rate 125 g/ha, scale of 0 to 10 where 0 is no effect and 10 is complete control
[3] = Postemergence, Rate 250 g/ha, scale of 0 to 10, 0 is no effect, 10 is complete control
[4] = Preemergence, Rate 62 g/ha, scale of 0 to 10 where 0 is no effect and 10 is complete control
[5] = Preemergence, Rate 125 g/ha, scale of 0 to 10 where 0 is no effect and 10 is complete control
[6] = Preemergence, Rate 250 g/ha, scale 0 to 10 (0 no effect, 10 complete control)
[7] = Preemergence, Rate 500 g/ha, scale of 0 to 10 where 0 is no effect and 10 is complete control
[8] = Rate 500 g/ha, Postemergence, scale 0 to 10, 0 is no effect, 10 is complete control
[9] = Rate 62 g/ha, flood test species, Pre-emergence, visual evaluation after twelve to sixteen days
[10] = Rate 125 g/ha, under heading Pre-emergence, flood test species, visual evaluation after twelve to sixteen days
[11] = Rate 250 g/ha, Pre-emergence (flood test species), scale 0 to 10, 0 is no effect, 10 is complete control
[12] = Rate 500 g/ha, Pre-emergence section of Table B, 0 to 10 scale (0 no effect, 10 complete control)

CC[C@H](C)n1c(=O)on(C(=O)N(c2ccc(Cl)cc2)C(C)C)c1=O [Compound 664]
Plant response rating, Crabgrass (crabgrass; [1]): 0 | Crabgrass plant response rating (crabgrass; [2]): 1 | Crabgrass plant response rating (crabgrass; [3]): 9 | Crabgrass plant response rating (crabgrass; [4]): 4 | Crabgrass plant response rating (crabgrass; [5]): 8 | Plant response rating, Crabgrass (crabgrass; [6]): 9 | Plant response rating, Crabgrass (crabgrass; [7]): 10 | Crabgrass plant response rating (crabgrass; [8]): 9 | Plant response rating, Cocklebur (cocklebur; [1]): 0 | Cocklebur plant response rating (cocklebur; [2]): 0 | Cocklebur plant response rating (cocklebur; [3]): 2 | Cocklebur plant response rating (cocklebur; [4]): 0 | Cocklebur plant response rating (cocklebur; [5]): 0 | Plant response rating, Cocklebur (cocklebur; [6]): 0 | Plant response rating, Cocklebur (cocklebur; [7]): 3 | Cocklebur plant response rating (cocklebur; [8]): 6 | Plant response rating, S. Flatsedge (0 to 10 scale, 0 is no effect, 10 is complete control) (smallflower flatsedge; [9]): 0 | S. Flatsedge plant response rating (0 to 10 scale, 0 is no effect, 10 is complete control) (smallflower flatsedge; [10]): 0 | S. Flatsedge plant response rating (smallflower flatsedge; [11]): 0 | S. Flatsedge plant response rating (smallflower flatsedge; [12]): 0 | Plant response rating, Nutsedge (purple nutsedge; [1]): 0 | Nutsedge plant response rating (purple nutsedge; [2]): 0 | Nutsedge plant response rating (purple nutsedge; [4]): 0 | Nutsedge plant response rating (purple nutsedge; [5]): 0 | Plant response rating, Nutsedge (purple nutsedge; [6]): 0 | Plant response rating, Nutsedge (purple nutsedge; [7]): 0 | Nutsedge plant response rating (purple nutsedge; [8]): 0 | Plant response rating, Bedstraw (bedstraw): 0 | Plant response rating, Velvetleaf (velvetleaf; [1]): 0 | Velvetleaf plant response rating (velvetleaf; [2]): 0 | Velvetleaf plant response rating (velvetleaf; [4]): 0 | Velvetleaf plant response rating (velvetleaf; [5]): 0 | Plant response rating, Velvetleaf (velvetleaf; [6]): 5 | Plant response rating, Velvetleaf (velvetleaf; [7]): 5 | Velvetleaf plant response rating (velvetleaf; [8]): 6 | Plant response rating, Rice (0 to 10 scale, 0 is no effect, 10 is complete control) (rice; [9]): 0 | Rice plant response rating (0 to 10 scale, 0 is no effect, 10 is complete control) (rice; [10]): 0 | Rice plant response rating (rice; [11]): 0 | Rice plant response rating (rice; [12]): 0 | Plant response rating, Soybean (soybean; [1]): 3 | Soybean plant response rating (soybean; [2]): 4 | Soybean plant response rating (soybean; [4]): 0 | Soybean plant response rating (soybean; [5]): 0 | Plant response rating, Soybean (soybean; [6]): 0 | Plant response rating, Soybean (soybean; [7]): 0 | Plant response rating, B. signalgrass (surinam grass; [1]): 0 | Plant response rating, B. signalgrass (surinam grass; [2]): 0 | B. signalgrass plant response rating (surinam grass; [3]): 4 | B. signalgrass plant response rating (surinam grass; [4]): 1 | B. signalgrass plant response rating (surinam grass; [5]): 5 | Plant response rating, B. signalgrass (surinam grass; [6]): 5 | Plant response rating, B. signalgrass (surinam grass; [7]): 8 | B. signalgrass plant response rating (surinam grass; [8]): 7 | Plant response rating, Corn (corn; [1]): 0 | Corn plant response rating (corn; [2]): 0 | Corn plant response rating (corn; [3]): 0 | Corn plant response rating (corn; [4]): 0 | Corn plant response rating (corn; [5]): 0 | Plant response rating, Corn (corn; [6]): 0 | Plant response rating, Corn (corn; [7]): 0 | Corn plant response rating (corn; [8]): 0 | Plant response rating, Barnyardgrass (0 to 10 scale, 0 is no effect, 10 is complete control) (bamyardgrass; [9]): 0 | Barnyardgrass plant response rating (0 to 10 scale, 0 is no effect, 10 is complete control) (bamyardgrass; [10]): 0 | Barnyardgrass plant response rating (bamyardgrass; [11]): 0 | Barnyardgrass plant response rating (bamyardgrass; [12]): 0 | Plant response rating, Sugarbeets (sugar beet; [1]): 0 | Sugarbeets plant response rating (sugar beet; [2]): 0 | Sugarbeets plant response rating (sugar beet; [4]): 0 | Sugarbeets plant response rating (sugar beet; [5]): 0 | Plant response rating, Sugarbeets (sugar beet; [6]): 0 | Plant response rating, Sugarbeets (sugar beet; [7]): 5 | Sugarbeets plant response rating (sugar beet; [8]): 0 | Plant response rating, Wild oats (wild oat; [1]): 0 | Wild oats plant response rating (wild oat; [2]): 0 | Wild oats plant response rating (wild oat; [4]): 0 | Wild oats plant response rating (wild oat; [5]): 3 | Plant response rating, Wild oats (wild oat; [6]): 3 | Plant response rating, Wild oats (wild oat; [7]): 7 | Wild oats plant response rating (wild oat; [8]): 7 | Plant response rating, Redroot pigweed (pigweed; [1]): 0 | Redroot pigweed plant response rating (pigweed; [2]): 2 | Redroot pigweed plant response rating (pigweed; [4]): 2 | Redroot pigweed plant response rating (pigweed; [5]): 7 | Plant response rating, Redroot pigweed (pigweed; [6]): 7 | Plant response rating, Redroot pigweed (pigweed; [7]): 10 | Redroot pigweed plant response rating (pigweed; [8]): 6 | Plant response rating, Blackgrass (blackgrass; [1]): 4 | Blackgrass plant response rating (blackgrass; [2]): 7 | Blackgrass plant response rating (blackgrass; [3]): 9 | Blackgrass plant response rating (blackgrass; [4]): 5 | Blackgrass plant response rating (blackgrass; [5]): 6 | Plant response rating, Blackgrass (blackgrass; [6]): 6 | Plant response rating, Blackgrass (blackgrass; [7]): 8 | Blackgrass plant response rating (blackgrass; [8]): 9 | Plant response rating, Giant foxtail (giant foxtail; [1]): 2 | Giant foxtail plant response rating (giant foxtail; [2]): 6 | Giant foxtail plant response rating (giant foxtail; [3]): 9 | Giant foxtail plant response rating (giant foxtail; [4]): 9 | Giant foxtail plant response rating (giant foxtail; [5]): 10 | Plant response rating, Giant foxtail (giant foxtail; [6]): 10 | Plant response rating, Giant foxtail (giant foxtail; [7]): 10 | Giant foxtail plant response rating (giant foxtail; [8]): 9
